Earlier results, collected in patent publication US20070254006A1, “Medical Devices and Coatings with Non-Leaching Antimicrobial Peptides” (Massachusetts Institute of Technology, priority 2006, published 2007).

Experiments:
[1] = system: avidin and streptavidin; conditions: interaction with avidin and streptavidin
[2] = system: Staphylococcus aureus; conditions: Dacron graft soaked in peptide solution before implanting in a rat, bacterial challenge

O=C(O)CCCC[C@@H]1SC[C@@H]2NC(=O)N[C@@H]21 [Biotin]
Ka [1]: 10^15 M^−1

dermaseptin
incidence of device colonization and infection [2]: reduces the incidence of device colonization and infection
